For this assay, the system named is Colon26 tumor cells. In words: Colon26 tumor growth, combination with cyclophosphamide (Example 8). Particulars: Colon26 in Balb/c mice; anti-SEMA4D 50 mg/kg IP weekly; cyclophosphamide 50 mg/kg IP days 12 and 20. Type of assay: in vivo.

This note sets out measurements from patent publication US9243068B2, “Combination of SEMA-4D inhibitors and immunomodulators to inhibit tumors and metastases” (Vaccinex, Inc., priority 2013, dated 2016).

Method: Experimental Design. 5×10^5 Colon26 tumor cells were implanted subcutaneously into the flank of female Balb/c mice. […] There were 20 mice per group. Tumors were measured with calipers 3×/week starting 5 days post implant. Animals were sacrificed when tumor volume reached 1000 mm^3.
Tumor growth was measured by calipers and measurements were used to calculate tumor volume using the formula (w^2×I)/2, where w=width, smaller measurement, and l=length, in mm, of the tumor.
Regression is the lack of palpable tumor, defined by a tumor measuring <50 mm^3 for at least two consecutive measurements.

As for `O=P1(N(CCCl)CCCl)NCCCO1` (stereo not shown) [cyclophosphamide], the “Tumor Growth Delay (TGD)” value is given as 96%.
